Assays:
[1] = target: T1, Horseradish peroxidase (HRP) (Armoracia rusticana, UniProt P00433); test: absorbance at […] nm, initial rates; format: biochemical; conditions: H2O2 as co-substrate; enzyme in solution and in sol-gel films; pH 6.0
T1 construct: gene PRXC1A
T1 sequence (P00433 31-338): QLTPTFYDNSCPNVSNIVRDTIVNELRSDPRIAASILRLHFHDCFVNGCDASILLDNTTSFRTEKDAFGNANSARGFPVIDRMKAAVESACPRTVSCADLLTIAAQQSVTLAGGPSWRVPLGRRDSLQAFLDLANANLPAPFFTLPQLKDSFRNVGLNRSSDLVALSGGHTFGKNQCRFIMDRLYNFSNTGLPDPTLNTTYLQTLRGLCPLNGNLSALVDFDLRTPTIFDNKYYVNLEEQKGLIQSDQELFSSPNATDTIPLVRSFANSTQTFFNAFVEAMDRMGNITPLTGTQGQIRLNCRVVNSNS

[2] = system: T2, Mushroom tyrosinase (MT); conditions: read-out: KM, mM / Solution; free enzyme in solution; pH 6.0 buffer; air oxygen
T2 construct: gene PPO3

Km [2]	Structure (SMILES)	absorbance at 650 nm, initial rates [1]
	Cc1cc(-c2cc(C)c(N)c(C)c2)cc(C)c1N [3,3′,5,5′-tetramethylbenzidine]	hydrogen peroxide reduction with TMB oxidation
1.1 mM	O=C(O)/C=C/c1ccc(O)c(O)c1 [Caffeic acid]	
